Data published in patent US20220304970A1, “LIPOSOMIAL EYE DROPS SOLUTION AND USES THEREOF FOR THE TREATMENT OF DRY EYE SYNDROME” (Dr. Rolf Lambert Pharma-Consulting GmbH, priority 2018, published 2022).

Test: Stability to steam sterilization
Conditions: 121° C. at 1·10^5 Pa (1 atm) for 15 minutes

stability to sterilization: not stable
SMILES: CCCCCCCCCCCCCCCC(=O)OC/C=C(C)/C=C/C=C(C)/C=C/C1=C(C)CCCC1(C)C [Vitamin A Palmitate, Retinyl Palmitate]
